Results on 3 molecules are retold here after patent US8409820B2, “Kinase sensors” (Massachusetts Institute of Technology, priority 2009, dated 2013).

Common to all, as to format: physicochemical
Data set [1] is described as follows: Quantum yield determination (quinine sulphate standard). The settings on record: for quantum yield Φ: with reference to quinine sulphate, 4 micromolar oxine derivative, 50 mM MgCl2, 20 mM HEPES (pH 7.4). As for the experimental part:
(§1) This example describes the synthesis and screening of Oxn derivatives. A selection of substituted hydroxyquinoline derivatives related to a sulfonamide derivative (FIG. 1, complex 1), but bearing different acceptor groups at position 5 (FIG. 1, complexes 2-7) was prepared using previously described methods. These analogs were screened for fluorescence in the presence of excess Mg^2+ and under buffered aqueous conditions. FIG. 1 lists fluorescence data for compounds 1-7. Spectra were acquired in 150 mM NaCl, 50 mM HEPES (pH 7.4), 25° C. with 10 μM 1-7 and 10 mM MgCl2. Excitation of all species is provided at λmax […].
(§2) The fluorophores were then qualitatively compared in a 96-well plate (transilluminator; λex=365 nm) to identify promising compounds (FIG. 3) and were further subjected to quantitative analysis in a fluorescence plate reader (FIG. 8). In FIG. 8, the quantum yields of selected fluorophores were calculated with reference to quinine sulphate (in […] H2SO4) as a standard (vide infra). Compound 10u has ε355=7905 cm^−1M^−1 (vide infra). The excitation and emission wavelengths of the triazole products (10b-v, λex=360-375 nm, λem=510-530 nm) were improved compared to those for Sox (1, λex=360 nm, λem=485 nm, Φ=0.342, ε355=8,247 cm^−1M^−1). Based on the preliminary screening, selected targets were then synthesized in larger quantities and the quantum yields of the corresponding hydroxyquinoline derivatives were determined. Compared to 10a (Φ=0.033) a 3.5-fold improvement in quantum yield was obtained in the case of the bromide 10u (λex=375 nm, λem=525 nm, Φ=0.111, ε355=7,905 cm^−1M^−1). In view of the fluorescent properties of this derivative, it was chosen for use as a chelation-sensitive fluorophore to prepare probes for mitogen-activated protein kinase-activated protein kinase-2 (MK2), and sarcoma kinase (Src), used as models of Ser/Thr and Tyr kinases, respectively. For the purposes of comparison, the analogous fluorescent peptides containing the original Sox chromophore were also prepared as previously described.
c. Quantum yield determination. The quantum yield (Φ) was determined in 20 mM HEPES (pH 7.4). Quinine sulphate dihydrate (QS, Fluka, puriss. for fluorescence) in 0.1 M H2SO4 was used as a standard (Φ=0.55). A 4 micromolar solution of the corresponding oxine derivative with 50 mM MgCl2 was compared to a 4 micromolar solution of quinine sulfate to assure that the absorbance (A360) is less than 0.05 at identical excitation wavelengths. The following equation was used to calculate the quantum yield: Φ=IAQSΦQS/AIQS where A=A360 and I=integrated fluorescence intensity (λex=360 nm). The calculated Φ assumes that the refractive index of 0.1 M H2SO4 is identical to that of 20 mM HEPES (pH 7.4). […]

Data set [2] can be described thus: Observation of oxidation of the chromophore.
Data set [3] in a line: Fluorescence analysis of 8-hydroxyquinoline derivatives in the presence of excess Mg2+ under buffered aqueous conditions. Particulars: 10 μM compound; for λem / λex: 10 mM MgCl2, 150 mM NaCl, 50 mM HEPES (pH 7.4), 25° C. The protocol: as §1
Azide 8 (FIG. 2) was prepared using previously reported methods. […] In the presence of catalytic Cu(I) and ascorbic acid, 8 reacted readily at room temperature with 1-ethynylcyclohexene (9a) in DMF/4-methylpiperidine (8:2) to afford the cycloaddition product 10a in essentially quantitative yield. […] The fluorescence properties of the triazole-substituted quinolines were investigated for the products from the 1,3-dipolar cycloaddition reaction of 8 with 21 additional alkynes (9b-v) (FIG. 2).
as §2
Fluorescence Experiments. • a. Fluorescence analysis of 8-hydroxyquinoline click products. A 96-well microtier plate was used in the experiments for preliminary examination of fluorescence properties. The overall volume in each well was 200 microliters. Individual reactions contained the crude product from the click chemistry reaction (10 micromolar dissolved in DMSO), MgCl2 (10 mM), NaCl (150 mM) and HEPES (50 mM) at 25° C. (pH 7.4). The fluorescence spectra were recorded with fixed excitation at 370 nm and emission at 525 nm. Based on the preliminary screening, selected products were then synthesized in larger quantities and the quantum yields of the corresponding hydroxyquinoline derivatives were determined.

Data set [4] is described as follows: Extinction coefficient determination. The protocol:
1. Stock solutions of the peptides were prepared in doubly deionized water and concentrations were determined by UV-Vis (based on the determined extinction coefficient of the fluorophore moiety, either 1 (Sox), ε355=8247 M^−1 cm^−1 or 10u (Clk), ε360=7905 M^−1 cm^−1 in 0.1 M NaOH with 1 mM Na2EDTA). An average of the values from three separate solutions, each prepared using a different volume of the stock solution, was read on UV-Vis spectrophotometer. Purified peptide stock solutions could be stored at 4° C. for at least 6 months or −20° C. for longer periods.
b. Extinction coefficient determination. Extinction coefficients of 1 and 10u were measured in 50 mM HEPES (pH 7.0), 150 mM NaCl. The εmax values were determined by plotting absorbance at 360 nm versus concentration for four chromophore solutions with concentrations between 20 and 60 micromolar and including 1 mM MgCl2.

SMILES strings stand for the structures.

Consider `Cc1ccc2c(C=O)ccc(O)c2n1` [Compound 2, 5-Carbaldehyde-8-Hydroxy-2-methylquinoline, reference compound], for which the “quantum yield compared with 1 (in words)” value in data set [1] (10 μM compound, 10 mM MgCl2, pH 7.4) is on record as “improved quantum yield”. Also, the “stability of the aldehyde group (in words)” value in data set [2] is on record as “readily oxidized”. In addition, the “excitation and emission wavelengths compared with 1 (in words)” value in data set [3] (10 mM MgCl2, pH 7.4) is given as “shorter λem”.

Consider `Oc1ccc(-n2cc(-c3ccc(Br)cc3)nn2)c2cccnc12` [Compound 10u, 8-Hydroxy-5-(4-(4-bromophenyl)-1H-1,2,3-triazol-1-yl)quinoline], for which the “improvement in quantum yield compared to 10a” value in data set [1] (compared to 10a (Φ=0.033)) was determined as 3.5 fold. For the same molecule, the “quantum yield Φ” value in data set [1] is recorded as 0.111. For the same molecule, in data set [4] (Example 1, 50 mM HEPES (pH 7.0), 150 mM NaCl, 1 mM MgCl2), the “extinction coefficient ε355” value is listed as 7,905 cm^−1M^−1. The “extinction coefficient ε360” value in data set [4] (in 0.1 M NaOH with 1 mM Na2EDTA) came out at 7905 M⁻¹ cm⁻¹. Further, in data set [3], the λem is given as 525 nm and the λex is on record as 375 nm.

Turning to `Oc1ccc(-n2cc(C3=CCCCC3)nn2)c2cccnc12` [Compound 10a, 8-Hydroxy-5-(4-cyclohexenyl-1H-1,2,3-triazol-1-yl)quinoline], the “quantum yield Φ” value in data set [1] came to 0.033. Besides, in data set [3], the λem worked out at 522 nm and the λex amounted to 371 nm.
